Experiments:
[1] = tested on: SARS-CoV-2 WT-GHB-03021; assay: microbe, parasite or virus in culture; type: cell-based; settings: Severe acute respiratory syndrome coronavirus 2, Vero C1008, read-out: SARS-CoV-2 WT-GHB-03021 EC50
[2] = target: human cathepsin L (Homo sapiens, UniProt P07711); assay: biochemical
[3] = in vitro; settings: African green monkey
[4] = tested on: SARS-CoV-2 WT-USA-WA1; assay: microbe, parasite or virus in culture; type: cell-based; settings: Severe acute respiratory syndrome coronavirus 2, Vero C1008, read-out: SARS-CoV-2 WT-USA-WA1 EC50
[5] = tested on: VeroE6 cells

Sequence of human cathepsin L (P07711 114-333): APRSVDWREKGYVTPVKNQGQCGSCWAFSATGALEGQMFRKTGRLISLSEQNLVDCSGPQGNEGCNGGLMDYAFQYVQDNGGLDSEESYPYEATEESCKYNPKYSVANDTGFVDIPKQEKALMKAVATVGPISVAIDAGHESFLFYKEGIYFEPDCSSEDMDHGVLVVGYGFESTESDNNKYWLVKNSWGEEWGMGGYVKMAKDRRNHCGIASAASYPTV

Work on `COc1cccc2[nH]c(C(=O)N[C@@H](CC(C)C)C(=O)N[C@@H](C[C@@H]3CCNC3=O)C(=O)CO)cc12` [PF-00835231] yielded an EC50 [1] of 190 nM, an IC50 [2] of 130 nM and a CC50 [3] greater than 10000 nM.

For `Cn1cnc(Cn2c(=O)[nH]/c(=N\c3cc4cn(C)nc4cc3Cl)n(Cc3cc(F)c(F)cc3F)c2=O)n1` [Ensitrelvir, ensitrelvir], the EC50 [4] was 210 nM and the IC50 [2] was greater than 10000 nM.

`COc1cccc2[nH]c(C(=O)N3C[C@@H]4CCC[C@@H]4[C@H]3C(=O)N[C@@H](C[C@@H]3CCCNC3=O)C(=O)CO)cc12` [ALG-097161, (1S,3aR,6aS)-N-((S)-4-Hydroxy-3-oxo-1-((S)-2-oxopiperidin-3-yl)butan-2-yl)-2-(4-methoxy-1H-indole-2-carbonyl)octahydrocyclopenta[c]pyrrole-1-carboxamide] gave an EC50 [1] of 590 nM, an EC50 [4] of 600 nM and an IC50 [2] greater than 10000 nM. For the same compound, the “effect on the viability of uninfected host cells” value [5] was “no effect” and the CC50 [3] was greater than 10000 nM.

With `CC(C)(C)[C@H](NC(=O)C(F)(F)F)C(=O)N1C[C@H]2[C@@H]([C@H]1C(=O)N[C@H](C#N)C[C@@H]1CCNC1=O)C2(C)C` [Nirmatrelvir, nirmatrelvir] the EC50 [1] was 120 nM, the EC50 [4] was 110 nM and the CC50 [3] was greater than 10000 nM.
